From patent US10758534B2 (Vertex Pharmaceuticals Incorporated, priority 2014, dated 2020)
Like-named read-outs stand apart in the source and are kept apart here.

Biological target: T1, F508del (Homo sapiens, UniProt P13569, DEL508-508)
T1 construct: expressed in transfected cells
Assay: Protocol 2: FRET membrane potential optical assay (VIPR), identification of correction compounds
Type: cell-based
Method in brief: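 Single-addition HTS format: F508del-expressing NIH3T3 cells pre-incubated 16 hrs at 37° C. ± compound, with 27° C. culture as positive control. Channel activation by forskolin 10 μM and genistein 20 μM upon switch to gluconate bath, pH 7.4; read-out is FRET-based depolarization signal.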

[1] = F508del CFTR modulator activity, compounds of Table 1, read-out: EC30
[2] = Table 3, compounds of Table 1 as modulators of CFTR activity, protocol not stated

T1 sequence (P13569 with tags, fused parts or gaps DEL508-508): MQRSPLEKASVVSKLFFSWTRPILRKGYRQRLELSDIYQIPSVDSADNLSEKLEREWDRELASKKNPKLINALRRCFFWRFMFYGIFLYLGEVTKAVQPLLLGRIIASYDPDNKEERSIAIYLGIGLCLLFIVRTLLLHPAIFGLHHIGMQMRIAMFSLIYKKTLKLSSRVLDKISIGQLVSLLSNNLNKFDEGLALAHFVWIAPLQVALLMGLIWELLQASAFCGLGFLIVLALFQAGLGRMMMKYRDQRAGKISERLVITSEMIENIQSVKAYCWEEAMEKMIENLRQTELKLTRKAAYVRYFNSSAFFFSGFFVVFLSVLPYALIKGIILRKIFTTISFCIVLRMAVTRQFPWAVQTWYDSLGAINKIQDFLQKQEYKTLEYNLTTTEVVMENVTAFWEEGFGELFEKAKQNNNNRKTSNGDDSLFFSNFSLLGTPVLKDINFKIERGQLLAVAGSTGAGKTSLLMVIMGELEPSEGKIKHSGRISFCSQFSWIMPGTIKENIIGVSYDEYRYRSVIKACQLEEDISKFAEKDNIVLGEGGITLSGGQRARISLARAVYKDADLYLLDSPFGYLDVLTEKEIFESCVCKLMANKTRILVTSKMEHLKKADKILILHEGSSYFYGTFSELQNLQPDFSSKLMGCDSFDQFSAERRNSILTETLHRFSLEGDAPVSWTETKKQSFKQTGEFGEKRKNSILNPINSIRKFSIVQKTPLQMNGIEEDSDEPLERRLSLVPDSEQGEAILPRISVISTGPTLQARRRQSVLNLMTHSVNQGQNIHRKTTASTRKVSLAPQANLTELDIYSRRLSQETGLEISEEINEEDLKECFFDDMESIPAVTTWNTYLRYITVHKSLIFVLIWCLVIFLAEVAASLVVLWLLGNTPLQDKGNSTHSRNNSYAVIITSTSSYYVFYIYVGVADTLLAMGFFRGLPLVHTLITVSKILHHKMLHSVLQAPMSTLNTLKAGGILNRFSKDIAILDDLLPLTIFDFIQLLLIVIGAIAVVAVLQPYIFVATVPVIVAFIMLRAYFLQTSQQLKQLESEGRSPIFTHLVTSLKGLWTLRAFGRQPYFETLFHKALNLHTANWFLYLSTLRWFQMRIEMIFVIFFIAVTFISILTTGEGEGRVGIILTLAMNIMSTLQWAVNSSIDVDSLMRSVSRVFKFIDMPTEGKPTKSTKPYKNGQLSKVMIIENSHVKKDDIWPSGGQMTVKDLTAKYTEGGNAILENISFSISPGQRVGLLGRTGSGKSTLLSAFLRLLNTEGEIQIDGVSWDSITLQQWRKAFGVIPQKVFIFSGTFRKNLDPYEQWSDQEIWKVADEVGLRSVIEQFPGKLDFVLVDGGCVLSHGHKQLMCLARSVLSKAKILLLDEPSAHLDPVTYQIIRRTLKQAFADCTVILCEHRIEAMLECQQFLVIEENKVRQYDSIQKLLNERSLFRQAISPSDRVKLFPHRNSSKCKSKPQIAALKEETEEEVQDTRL

EC30 [1] [nM] | EC30 [2] | SMILES
< 3000 | – | C/C=C/COc1cccc(S(=O)(=O)NC(=O)c2ccc(C(C)(C)C)nc2N2CC(C)CC2(C)C)n1 (stereo not shown) [Compound 2715]
– | +++ (“+++” means <3 uM) | Cc1cc(C)c(Cn2c(C(=O)NS(=O)(=O)c3ccccc3)cc3cc(C)ccc32)c(C)c1 [Compound 248, N-(benzenesulfonyl)-5-methyl-1-[(2,4,6-trimethylphenyl)methyl]indole-2-carboxamide]
< 3000 | – | Cc1ccc(F)c(-c2ccc(C(=O)NS(=O)(=O)c3cccnc3N)c(N3C[C@@H](C)CC3(C)C)n2)c1 [Compound 2205, N-[(2-amino-3-pyridyl)sulfonyl]-6-(2-fluoro-5-methyl-phenyl)-2-[(4S)-2,2,4-trimethylpyrrolidin-1-yl]pyridine-3-carboxamide]
3000 to 10000 | – | CNc1cccc(S(=O)(=O)NC(=O)c2cccnc2N2CC(C)CC2(C)C)n1 (stereo not shown) [Compound 2535, N—[[6-(methylamino)-2-pyridyl]sulfonyl]-2-(2,2,4-trimethylpyrrolidin-1-yl)pyridine-3-carboxamide]
< 3000 | – | C[C@@H]1CN(c2nc(-c3ccc(F)cc3F)ccc2C(=O)NS(=O)(=O)c2ccc[nH]c2=O)C(C)(C)C1 [Compound 2159, 6-(2,4-difluorophenyl)-N-[(2-oxo-1H-pyridin-3-yl)sulfonyl]-2-[(4S)-2,2,4-trimethylpyrrolidin-1-yl]pyridine-3-carboxamide]
< 3000 | – | CC1CN(c2ncccc2C(=O)NS(=O)(=O)c2cccc(N(C)Cc3ccccc3Cl)n2)C(C)(C)C1 (stereo not shown) [Compound 2744]
3000 to 10000 | – | Cc1cc(-c2ccc(C(=O)NS(=O)(=O)c3ccc[nH]c3=O)c(N3C[C@@H](C)CC3(C)C)n2)cc(C)c1O [Compound 2556, 6-(4-hydroxy-3,5-dimethyl-phenyl)-N-[(2-oxo-1H-pyridin-3-yl)sulfonyl]-2-[(4S)-2,2,4-trimethylpyrrolidin-1-yl]pyridine-3-carboxamide]
– | +++ (“+++” means <3 uM) | Cc1cc(C)c(Cn2cc(C(C)(C)C)cc2C(=O)NS(=O)(=O)c2cccc(N)c2)c(C)c1 [Compound 195, N-(3-aminophenyl)sulfonyl-4-tert-butyl-1-[(2,4,6-trimethylphenyl)methyl]pyrrole-2-carboxamide]
< 3000 | – | C[C@@H]1CN(c2nc(-c3ccc(F)cc3F)ccc2C(=O)NS(=O)(=O)c2cccc(N)n2)C(C)(C)C1 [Compound 2372, N-[(6-amino-2-pyridyl)sulfonyl]-6-(2,4-difluorophenyl)-2-[(4S)-2,2,4-trimethylpyrrolidin-1-yl]pyridine-3-carboxamide]
– | +++ (“+++” means <3 uM) | Cc1ccc(C(F)(F)F)c(Cn2nc(C(C)(C)C)cc2C(=O)NS(=O)(=O)c2ccccc2)c1 [Compound 304, N-(benzenesulfonyl)-5-tert-butyl-2-[[5-methyl-2-(trifluoromethyl)phenyl]methyl]pyrazole-3-carboxamide]
– | +++ (“+++” means <3 uM) | COc1cccc2c1cc(C(=O)NS(=O)(=O)c1cccc(N)c1)n2Cc1c(C)cc(C)cc1C [Compound 120, N-(3-aminophenyl)sulfonyl-4-methoxy-1-[(2,4,6-trimethylphenyl)methyl]indole-2-carboxamide]
< 3000 | – | CC1CN(c2ncccc2C(=O)NS(=O)(=O)c2cccc(OCc3cccc(-n4cccc4)c3)n2)C(C)(C)C1 (stereo not shown) [Compound 2600, N—[[6-[(3-pyrrol-1-ylphenyl)methoxy]-2-pyridyl]sulfonyl]-2-(2,2,4-trimethylpyrrolidin-1-yl)pyridine-3-carboxamide]
– | +++ (“+++” means <3 uM) | COc1ccc2c(c1)cc(C(=O)NS(=O)(=O)c1cccc(N)c1)n2Cc1c(C)cc(C)cc1C [Compound 336, N-(3-aminophenyl)sulfonyl-5-methoxy-1-[(2,4,6-trimethylphenyl)methyl]indole-2-carboxamide]
– | +++ (“+++” means <3 uM) | Cc1cc(C)c(Oc2nc(-c3c(C)cccc3C)ccc2C(=O)NS(=O)(=O)c2cccc(N)n2)c(C)c1 [Compound 97, N-[(6-amino-2-pyridyl)sulfonyl]-6-(2,6-dimethylphenyl)-2-(2,4,6-trimethylphenoxy)pyridine-3-carboxamide]
3000 to 10000 | – | COc1cccc(-c2ccc(C(=O)NS(=O)(=O)c3ccc[nH]c3=O)c(N3C[C@@H](C)CC3(C)C)n2)c1F [Compound 2222, 6-(2-fluoro-3-methoxy-phenyl)-N-[(2-oxo-1H-pyridin-3-yl)sulfonyl]-2-[(4S)-2,2,4-trimethylpyrrolidin-1-yl]pyridine-3-carboxamide]
< 3000 | – | C[C@@H]1CN(c2nc(-c3ccc(CO)cc3)ccc2C(=O)NS(=O)(=O)c2cccnc2N)C(C)(C)C1 [Compound 2590, N-[(2-amino-3-pyridyl)sulfonyl]-6-[4-(hydroxymethyl)phenyl]-2-[(4S)-2,2,4-trimethylpyrrolidin-1-yl]pyridine-3-carboxamide]
– | + (“+” means greater than 10 uM) | Cc1cc(C)c(Cn2c(C(=O)NS(=O)(=O)c3ccnc(N)c3)cc3ccccc32)c(C)c1 [Compound 627, N-[(2-amino-4-pyridyl)sulfonyl]-1-[(2,4,6-trimethylphenyl)methyl]indole-2-carboxamide]
– | +++ (“+++” means <3 uM) | Cc1cccc(C)c1Cn1nc(C(C)(C)C)cc1C(=O)NS(=O)(=O)c1cccc2c1ccn2C [Compound 210, 5-tert-butyl-2-[(2,6-dimethylphenyl)methyl]-N-(1-methylindol-4-yl)sulfonyl-pyrazole-3-carboxamide]
– | +++ (“+++” means <3 uM) | CC(C)Oc1ccc(-c2ccc(C(=O)NS(=O)(=O)c3cccc(N)n3)c(N3C(C)CC(c4ccccc4)C3C)n2)cn1 (stereo not shown) [Compound 601, N-[(6-amino-2-pyridyl)sulfonyl]-2-(2,5-dimethyl-3-phenyl-pyrrolidin-1-yl)-6-(6-isopropoxy-3-pyridyl)pyridine-3-carboxamide]
– | +++ (“+++” means <3 uM) | CCOc1ccc(-c2ccc(C(=O)NS(=O)(=O)c3nccnc3N)c(N3CCC(C)CC3)n2)cc1 [Compound 507, N-(3-aminopyrazin-2-yl)sulfonyl-6-(4-ethoxyphenyl)-2-(4-methyl-1-piperidyl)pyridine-3-carboxamide]
– | +++ (“+++” means <3 uM) | Cc1cc(C)c(Oc2nc(-c3ccc(C(C)C)cc3)ccc2C(=O)NS(=O)(=O)c2cccc(N)n2)c(C)c1 [Compound 164, N-[(6-amino-2-pyridyl)sulfonyl]-6-(4-isopropylphenyl)-2-(2,4,6-trimethylphenoxy)pyridine-3-carboxamide]
– | +++ (“+++” means <3 uM) | CC(C)(C)c1cc(C(=O)NS(=O)(=O)c2ccccc2)n(Cc2cc(F)ccc2C(F)(F)F)n1 [Compound 3, 3-(tert-butyl)-1-(5-fluoro-2-(trifluoromethyl)benzyl)-N-(phenylsulfonyl)-1H-pyrazole-5-carboxamide]
< 3000 | – | CC1CN(c2ncccc2C(=O)NS(=O)(=O)c2cccc(Nc3ccc(C(F)(F)F)cc3)n2)C(C)(C)C1 (stereo not shown) [Compound 2292, N—[[6-[4-(trifluoromethyl)anilino]-2-pyridyl]sulfonyl]-2-(2,2,4-trimethylpyrrolidin-1-yl)pyridine-3-carboxamide]
< 3000 | – | COc1cc(CO)cc(-c2ccc(C(=O)NS(=O)(=O)c3cccnc3N)c(N3C[C@@H](C)CC3(C)C)n2)c1 [Compound 2065, N-[(2-amino-3-pyridyl)sulfonyl]-6-[3-(hydroxymethyl)-5-methoxy-phenyl]-2-[(4S)-2,2,4-trimethylpyrrolidin-1-yl]pyridine-3-carboxamide]
– | +++ (“+++” means <3 uM) | COc1ccc(-c2ccc(C(=O)NS(=O)(=O)c3cccc(N)n3)c(Oc3c(C)cc(C)cc3C)n2)c(OC)n1 [Compound 754, N-[(6-amino-2-pyridyl)sulfonyl]-6-(2,6-dimethoxy-3-pyridyl)-2-(2,4,6-trimethylphenoxy)pyridine-3-carboxamide]
– | ++ (“++” means between 3 uM and 10 uM) | Cc1cccc(C)c1Cn1nc(-c2cccc(CN3CCOCC3)c2)cc1C(=O)NS(=O)(=O)c1ccccc1 [Compound 302, N-(benzenesulfonyl)-2-[(2,6-dimethylphenyl)methyl]-5-[3-(morpholinomethyl)phenyl]pyrazole-3-carboxamide]

SMILES | EC30 [1] [nM] | EC30 [2]
Cc1cc(C)c(Oc2nc(-c3cc(F)cc(OCC(C)C)c3)ccc2C(=O)NS(=O)(=O)c2cccc(N)n2)c(C)c1 [Compound 196, N-[(6-amino-2-pyridyl)sulfonyl]-6-(3-fluoro-5-isobutoxy-phenyl)-2-(2,4,6-trimethylphenoxy)pyridine-3-carboxamide] | – | +++ (“+++” means <3 uM)
CC(C)COc1cc(F)cc(-c2nc(N3C[C@@H](C)CC3(C)C)c(C(=O)NS(=O)(=O)c3cccc(N)n3)cc2F)c1 [Compound 2473, N-[(6-amino-2-pyridyl)sulfonyl]-5-fluoro-6-(3-fluoro-5-isobutoxy-phenyl)-2-[(4S)-2,2,4-trimethylpyrrolidin-1-yl]pyridine-3-carboxamide] | < 3000 | –
CC(C)COc1ccc(-c2ccc(C(=O)NS(=O)(=O)c3cccc(N)n3)c(N3[C@H](C)CC[C@@H]3C)n2)cn1 [Compound 544, N-[(6-amino-2-pyridyl)sulfonyl]-2-[(2S,5R)-2,5-dimethylpyrrolidin-1-yl]-6-(6-isobutoxy-3-pyridyl)pyridine-3-carboxamide] | – | +++ (“+++” means <3 uM)
Cc1cc(C)c(Oc2nc(-c3cc(OCC(C)C)ccc3F)ccc2C(=O)NS(=O)(=O)c2ccc[nH]c2=O)c(C)c1 [Compound 279, 6-(2-fluoro-5-isobutoxy-phenyl)-N-[(2-oxo-1H-pyridin-3-yl)sulfonyl]-2-(2,4,6-trimethylphenoxy)pyridine-3-carboxamide] | – | +++ (“+++” means <3 uM)
CC(C)COc1cc(F)cc(-c2ccc(C(=O)NS(=O)(=O)c3ccc[nH]c3=O)c(N3C[C@@H](C)CC3(C)C)n2)c1 [Compound 492, 6-(3-fluoro-5-isobutoxy-phenyl)-N-[(2-oxo-1H-pyridin-3-yl)sulfonyl]-2-[(4S)-2,2,4-trimethylpyrrolidin-1-yl]pyridine-3-carboxamide] | – | +++ (“+++” means <3 uM)
